The subject of data set [1] is aldehyde oxidase. In words: Aldehyde oxidase mediated oxidation of methotrexate. An excerpt: (§1) In order to unravel the mechanism of methotrexate non-responsiveness M. G. Nair investigated the metabolism of methotrexate and its potential deactivation pathways. […] 3; 29-34 (1996)].
The aldehyde oxidase mediated oxidation of methotrexate vs. certain metabolically inert antifolates was investigated by M. Gopal Nair. [Med. Chem. Research. 9:176-185, 1999].

The conditions of data set [2]: cited from earlier work.
The conditions of data set [3]: women; sublingual versus oral solid dosage unit; cited from earlier work.
For data set [4] the following is noted: cited from earlier work. This is another data set of the same source.
Data set [5] deals with patients with rheumatoid arthritis. Briefly: Conventional therapy of rheumatoid arthritis with methotrexate (Rheumatrex). It is filed as in vivo, human.
Excerpt: as §1

For data set [6] the following is noted: oral dosage form; cited from earlier work.
The nature of data set [7]: Absorption of oral methotrexate in a group of arthritic patients (Example-1). The format is in vivo, human. As to conditions: oral dosage form. As to the method: If 10 mg of the drug is given by the oral route only 2.0 mg is absorbed. If the optimal therapeutic dosage is tailored based on this low absorption, then the therapeutically effective dose without manifestation of significant toxic effects would be an effective accumulation of 2.0 mg of the drug in the plasma. It is reasonable to assume for antifolates that an increase of 50% of drug level in plasma relative to the accepted safe level would lead to disastrous toxic consequences including severe bone marrow depression. Therefore an increase of bioavailability from 20 to 30 percent in this case would effectively increase drug concentration by 50% in the plasma. The 10 percent increase in Bioavailability may well be envisioned by slight pH changes in the gut of patients who may be taking antacids, or medicine to modulate acid secretions, taking other medications or unknown factors. The present invention addresses this very crucial safety issues and provides a means to stabilize drug concentration in plasma to predictable levels by replacing oral dosage form of methotrexate with the sublingual dosage form, the absorption of which is independent of the biochemical pharmacology of human gut.

As for `CN(Cc1nc2c(N)nc(N)nc2[nH]c1=O)c1ccc(C(=O)N[C@@H](CCC(=O)O)C(=O)O)cc1` [7-hydroxymethotrexate], the “antifolate activity of the oxidation product” value in data set [1] is “inactive”.
`Nc1nc(=O)c2c([nH]1)NCC(CNc1ccc(C(=O)N[C@@H](CCC(=O)[O-])C(=O)[O-])cc1)N2C=O.[Ca+2]` (stereo partly shown) [Calcium folinate]: the “time to improvement of odynophagia” value in data set [2] (15 mg orally four times a day after methotrexate overdose) is not above 24 h.
As to `C[C@]12CC[C@@H]3c4ccc(O)cc4CC[C@H]3[C@@H]1CC[C@@H]2O` [estradiol], in data set [3], the “share of the oral dose needed by the sublingual route to achieve the same bioavailability” value is on record as 20-25%.
Turning to `CN(Cc1cnc2nc(N)nc(N)c2n1)c1ccc(C(=O)N[C@@H](CCC(=O)O)C(=O)O)cc1` [methotrexate], the solubility entry in data set [4] is given as “pH dependent”. The “percentage of patients who were methotrexate non-responders” value in data set [5] is listed as 40%. Moreover, in data set [5] (some patients), the drug related toxicity entry is “elevation of liver enzymes”. In data set [6], the theoretical bioavailability is 20-80%. The absorption in data set [7] is recorded as 20%. Besides, in data set [2] (60 mg weekly instead of 15 mg weekly, oral tablets, rheumatoid arthritis patient), the “toxic effects of the incorrect dose” value is “odynophagia, dysphagia and oesophagitis”. The severe unwanted effects entry in data set [2] (weekly dose taken in error daily or on several days each week) is “neutropenia, hepatotoxicity and bone marrow suppression”.

Values taken from US20100239646A1, “Sublingual methotrexate and methotrexate patches” (priority 2009, published 2010).
